Reference: BindingDB's records for doi:10.1021/acschembio.6b00156 (Helmholtz-Institute For Pharmaceutical Research Saarland, 2016)

Target: Quinolone signal response protein (Pseudomonas aeruginosa, UniProt A0A072ZMX8)
Assay: Isothermal Titration Calorimetry (ITC)
Settings: 14 °C
Protocol: ITC titrations were performed using an ITC200 instrument (Microcal Inc.,Malvern). DMSO stock solutions (20 mM) of fragments were diluted 1:20 (v/v) into ITC titration buffer (50 mM tricine, 2 mM MnCl2, pH = 8.5) to give a 1 mM final compound concentration at 5% (v/v) DMSO. Aliquots of the same buffer batch (stored at […]) were used as for protein storage to avoid a buffer mismatch. H6PqsE was diluted in the same buffer to 100 μM, and DMSO concentration was adjusted to 5% (v/v). Titrations were carried out at 298 K using 19 injections of 2 μL every 180 s. Areas under the peaks were integrated. Baseline peaks at the endof a titration accounting for the heat of dilution and mixing were subtracted from the measurement. Data were fitted to a 1:1 binding model (MicroCal Origin 7 software).

Quinolone signal response protein, sequence (A0A072ZMX8 whole entry): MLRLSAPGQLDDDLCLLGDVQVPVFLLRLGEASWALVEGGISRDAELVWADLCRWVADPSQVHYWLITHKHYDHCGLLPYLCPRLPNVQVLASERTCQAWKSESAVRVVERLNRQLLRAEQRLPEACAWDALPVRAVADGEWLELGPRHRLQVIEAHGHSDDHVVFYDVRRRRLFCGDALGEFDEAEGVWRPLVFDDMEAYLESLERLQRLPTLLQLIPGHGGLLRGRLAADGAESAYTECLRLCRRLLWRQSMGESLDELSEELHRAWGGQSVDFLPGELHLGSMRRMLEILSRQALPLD

Row | Kd | Compound
1 | 0.9 µM | O=C(O)c1ccccc1-c1cccnc1 [CC41801 (1)]
2 | 19.6 µM | Cc1ccsc1C(=O)O [AC30341 (3)]
